pIC50: −log10 of the molar value. Converted amounts (≈) assume the structure as drawn. Read-outs that look alike come from different tables or passages of the source.
How the values were obtained:
[1] = target: E. coli topoisomerase I (Escherichia coli (strain K12), UniProt P06612); test: biochemical; type: biochemical; details: for IC50: Table 3, E. coli topoisomerase I, single values set for ranges and bounds
Description: Recombinant E. coli topoisomerase I and gyrase expressed in E. coli were purified as described previously.
E. coli Topoisomerase I Relaxation Activity Inhibition Assay
The relaxation activity of E. coli topoisomerase I was assayed in a buffer containing 10 mM Tris-HCl, pH 8.0, 50 mM NaCl, 0.1 mg/mL gelatin, and 0.5 mM MgCl2. Half microliter from the appropriate stock solutions of compounds dissolved in the solvent (DMSO) or the solvent alone (control) was mixed with 9.5 μL of the reaction buffer containing 10 ng of enzyme before the addition of 10 μL of reaction buffer containing 200 ng of supercoiled pBAD/Thio plasmid DNA purified by cesium chloride gradient as substrate. Following incubation at 37° C. for 30 min, the reactions were terminated by the addition of 4 μL of a stop buffer (50% glycerol, 50 mM EDTA, and 0.5% (v/v) bromophenol blue), and analyzed by agarose gel electrophoresis. The gels were stained in ethidium bromide and photographed under UV light.

[2] = test system: E. coli (MG1655) WT; test: MIC, microdilution in Mueller-Hinton Broth; details: wild type, read-out: Whole cell based antibacterial activity (MIC) E. coli (MG1655) WT
[3] = test system: B. subtilis (ATCC 6633) WT; test: MIC, microdilution in Mueller-Hinton Broth; details: read-out: Whole cell based antibacterial activity (MIC) B. subtilis (ATCC 6633) WT
[4] = test system: E. coli Imp4213 (BAS3023); test: MIC, microdilution in Mueller-Hinton Broth; type: cell-based; details: for MIC: Escherichia coli, read-out: Whole cell based antibacterial activity (MIC) E. coli Imp4213 (BAS3023), membrane permeable imp mutant; for Whole cell based antibacterial activity (MIC) E. coli Imp4213 (BAS3023): membrane permeable imp mutant
[5] = target: Human topoisomerase I (Homo sapiens (Human), UniProt P11387); test: Human topoisomerase I relaxation inhibition assay; type: biochemical; details: read-out: Topoisomerase inhibitory activity (IC50) Human topo I (type IB)
Human topoisomerase I, sequence (P11387 whole entry): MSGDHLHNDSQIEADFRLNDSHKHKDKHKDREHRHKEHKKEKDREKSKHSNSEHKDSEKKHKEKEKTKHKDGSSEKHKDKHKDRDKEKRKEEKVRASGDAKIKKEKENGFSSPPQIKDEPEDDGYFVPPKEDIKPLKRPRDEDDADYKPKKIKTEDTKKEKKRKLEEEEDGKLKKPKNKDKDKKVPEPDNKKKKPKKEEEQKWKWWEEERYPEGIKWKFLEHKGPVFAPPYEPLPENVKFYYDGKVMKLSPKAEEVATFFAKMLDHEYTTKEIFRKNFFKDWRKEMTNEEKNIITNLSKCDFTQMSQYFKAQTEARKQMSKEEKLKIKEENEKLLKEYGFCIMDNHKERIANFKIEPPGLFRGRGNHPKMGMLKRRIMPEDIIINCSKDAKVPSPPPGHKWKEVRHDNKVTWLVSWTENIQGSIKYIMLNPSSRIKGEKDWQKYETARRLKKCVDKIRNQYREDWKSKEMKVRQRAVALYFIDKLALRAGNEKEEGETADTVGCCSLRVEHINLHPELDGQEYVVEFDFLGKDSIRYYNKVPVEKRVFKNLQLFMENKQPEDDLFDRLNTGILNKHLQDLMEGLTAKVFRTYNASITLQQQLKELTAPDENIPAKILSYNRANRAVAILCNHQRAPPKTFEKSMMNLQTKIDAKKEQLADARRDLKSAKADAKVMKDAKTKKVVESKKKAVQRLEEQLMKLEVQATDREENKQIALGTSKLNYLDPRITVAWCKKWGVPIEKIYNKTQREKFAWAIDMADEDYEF
Description: Human topoisomerase I relaxation assays were carried out with 0.5 U of enzyme in reaction buffer supplied by the manufacturer. The enzyme was mixed with the indicated concentration of compound dissolved before 200 ng of supercoiled pBAD/Thio plasmid DNA was added in the same buffer, for a final volume of 20 μL. Following incubation at 37° C. for 30 minutes, the reactions were terminated with a buffer containing 5% SDS, 0.25% bromophenol blue, and 25% glycerol, and analyzed by agarose gel electrophoresis.
Human topoisomerase I and topoisomerase IIα were purchased from TopoGen (Buena vista, CO, USA).

[6] = test system: Vero cells; test: Vero cell cytotoxicity assay; type: cell-based; details: Chlorocebus sabaeus, Vero; cytotoxicity
Description: MICs of compounds against M. tuberculosis were determined by a modified microplate Alamar blue assay (MABA). Vero cell cytotoxicity assay was performed as previously described.

[7] = test system: M. tuberculosis (H37Rv); test: MIC, microplate Alamar blue assay (MABA); type: cell-based; details: MABA, read-out: Whole cell based antibacterial activity (MIC) M. tuberculosis (H37Rv)
[8] = experimental, converted from IC50
[9] = Bacillus subtilis, ATCC6633, wild type
[10] = Topoisomerase inhibitory activity (IC50) E. coli topo I (type IA), relaxation of supercoiled plasmid DNA
[11] = read-out: IC50 (μM) used for CoMFA
[12] = relaxation of supercoiled plasmid DNA, read-out: Topoisomerase inhibitory activity (IC50) E. coli topo I (type IA)

E. coli topoisomerase I, sequence (P06612 whole entry, looked up): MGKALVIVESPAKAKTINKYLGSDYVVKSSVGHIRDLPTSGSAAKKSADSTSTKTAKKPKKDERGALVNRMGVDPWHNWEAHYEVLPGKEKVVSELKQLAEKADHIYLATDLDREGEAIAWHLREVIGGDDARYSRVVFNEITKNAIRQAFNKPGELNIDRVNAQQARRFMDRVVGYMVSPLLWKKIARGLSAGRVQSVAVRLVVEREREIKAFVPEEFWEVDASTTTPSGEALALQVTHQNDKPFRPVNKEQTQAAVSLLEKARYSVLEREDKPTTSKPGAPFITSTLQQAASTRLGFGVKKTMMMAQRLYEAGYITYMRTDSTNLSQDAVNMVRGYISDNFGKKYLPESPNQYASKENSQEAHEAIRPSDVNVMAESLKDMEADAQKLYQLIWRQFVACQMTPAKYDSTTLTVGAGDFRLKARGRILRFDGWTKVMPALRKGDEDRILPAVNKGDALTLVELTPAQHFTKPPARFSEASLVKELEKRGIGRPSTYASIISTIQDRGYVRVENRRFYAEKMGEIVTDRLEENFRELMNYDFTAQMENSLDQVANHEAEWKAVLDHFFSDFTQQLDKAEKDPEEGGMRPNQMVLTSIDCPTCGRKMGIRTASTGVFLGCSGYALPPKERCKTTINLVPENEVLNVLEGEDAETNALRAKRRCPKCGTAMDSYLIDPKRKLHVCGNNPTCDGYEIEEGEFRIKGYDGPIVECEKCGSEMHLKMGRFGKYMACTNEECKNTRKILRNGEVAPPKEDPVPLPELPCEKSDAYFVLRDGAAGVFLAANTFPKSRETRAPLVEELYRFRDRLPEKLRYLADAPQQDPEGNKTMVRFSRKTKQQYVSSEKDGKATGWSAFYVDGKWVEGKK

Compound | PIC50 (pIC50 = −log IC50) [1, 8] | MIC ([2]; Escherichia coli, MG1655) [µM] | MIC [4] [µM] | other results
O=C(O)c1cn2c3c(c(N4CCNCC4)c(F)cc3c1=O)Oc1cc([N+](=O)[O-])ccc1-2 [Compound 10b, 5-Fluoro-9-nitro-3-oxo-6-(piperazin-1-yl)-3H-pyrido[3,2,1-kl]phenoxazine-2-carboxylic acid] | 5.41 | > 200 | – | MIC [3, 9]: > 200 µM
CCOC(=O)c1cn2c3c(c(F)c(F)cc3c1=O)Oc1cc(C#N)ccc1-2 [Compound 6b, Ethyl 9-cyano-5,6-difluoro-3-oxo-3H-pyrido[3,2,1-kl]phenoxazine-2-carboxylate] | 4.51 | > 200 | – | –
CC1CCN(c2c(F)cc3c(=O)c(C(=O)O)cn4c3c2Oc2cc(N)ccc2-4)CC1 [Compound 11c, 9-Amino-5-fluoro-6-(4-methylpiperidin-1-yl)-3-oxo-3H-pyrido[3,2,1-kl]phenoxazine-2-carboxylic acid] | 5.41 | > 200 | 3.12 (≈ 1.28 µg/mL) | pIC50 [1, 10]: 4.81 to 5.41
CC(C)(C)OC(=O)N[C@H]1CCN(c2c(F)cc3c(=O)c(C(=O)O)cn4c3c2Oc2cc(N)ccc2-4)C1 [Compound 15a, (S)-9-amino-6-(3-((tert-butoxycarbonyl)amino)pyrrolidin-1-yl)-S-fluoro-3-oxo-3H-pyrido[3,2,1-kl]phenoxazine-2-carboxylic acid] | 5.41 | – | – | IC50 [1, 11]: 3.9 µM; pIC50 [1, 12]: 5.41; Whole cell based antibacterial activity (MIC) E. coli Imp4213 (BAS3023) [4]: 12.5 µM; MIC [2]: >200 µM; MIC ([3]; wild type): 12.5 µM (≈ 6.21 µg/mL)
CCCCCCNc1c(F)cc2c(=O)c(C(=O)O)cn3c2c1Oc1cc(N)ccc1-3 [Compound 11k, 9-Amino-5-fluoro-6-(hexylamino)-3-oxo-3H-pyrido[3,2,1-kl]phenoxazine-2-carboxylic acid] | 4.81 | > 200 | – | pIC50 [1, 10]: 4.81 to 5.41; MIC [3, 9]: > 200 µM
CC(=O)c1ccc2c(c1)Oc1c(F)c(F)cc3c(=O)c(C(=O)O)cn-2c13 [Compound 7d, 9-A cetyl-5,6-difluoro-3-oxo-3H-pyrido[3,2,1-kl]phenoxazine-2-carboxylic acid] | 4.81 | > 200 | – | MIC [3, 9]: > 200 µM
CCOC(=O)c1cn2c3c(c(N4CCN(C)CC4)c(F)cc3c1=O)Oc1cc([N+](=O)[O-])ccc1-2 [Compound 9, Ethyl-5-fluoro-6-(4-methylpiperazin-1-yl)-9-nitro-3-oxo-3H-pyrido[3,2,1-kl]phenoxazine-2-carboxylate] | 5.71 | > 200 | 25 (≈ 11.7 µg/mL) | –
O=C(O)c1cn2c3c(c(F)c(F)cc3c1=O)Oc1cc([N+](=O)[O-])ccc1-2 [Compound 7a, 5,6-Difluoro-9-nitro-3-oxo-3H-pyrido[3,2,1-kl]phenoxazine-2-carboxylic acid] | 4.81 | 200 (≈ 72 µg/mL) | 0.78 (≈ 0.281 µg/mL) | –
Nc1ccc2c(c1)Oc1c(N3CCNCC3)c(F)cc3c(=O)c(C(=O)O)cn-2c13 [Compound 11b, 9-Amino-5-fluoro-3-oxo-6-(piperazin-1-yl)-3H-pyrido[3,2,1-kl]phenoxazine-2-carboxylic acid] | 6.62 | > 200 | 0.39 (≈ 0.155 µg/mL) | pIC50 [1, 10]: 6.01 to 6.62; pIC50 [5]: 5.11; pIC50 [6]: < 3.90
CCOC(=O)c1cn2c3c(c(F)c(F)cc3c1=O)Oc1cc(C(F)(F)F)ccc1-2 [Compound 6c, Ethyl 5,6-difluoro-3-oxo-9-(trifluoromethyl)-3H-pyrido[3,2, I-kl]phenoxazine-2-carboxylate] | 3.60 | – | – | activity against topoisomerase I when tested at 125 μM [1]: inactive; IC50 [1, 11]: 250 µM; pIC50 [1, 12]: < 3.90; Whole cell based antibacterial activity (MIC) E. coli Imp4213 (BAS3023) [4]: >200 µM; MIC [2]: >200 µM; MIC ([3]; wild type): >200 µM
Nc1ccc2c(c1)Oc1c(N3CC[C@@H](N)C3)c(F)cc3c(=O)c(C(=O)O)cn-2c13 [Compound 17b, (R)-9-amino-6-(3-aminopyrrolidin-1-yl)-5-fluoro-3-oxo-3H-pyrido[3,2,1-kl]phenoxazine-2-carboxylic acid] | 6.14 | > 200 | 6.25 (≈ 2.48 µg/mL) | MIC [7]: >63.1 µM; MIC ([7]; Mycobacterium tuberculosis, H37RV): > 63.1 µM; pIC50 [6]: < 4.20
CC(=O)Nc1ccc2c(c1)Oc1c(F)c(F)cc3c(=O)c(C(=O)O)cn-2c13 [Compound 12, 9-acetamido-5,6-difluoro-3-oxo-3H-pyrido[3,2,1-kl]phenoxazine-2-carboxylic acid] | 5.11 | > 200 | – | MIC [3, 9]: > 200 µM
Nc1ccc2c(c1)Oc1c(NC3CCCC3)c(F)cc3c(=O)c(C(=O)O)cn-2c13 [Compound 11j, 9-Amino-6-(cyclopentylamino)-5-fluoro-3-oxo-3H-pyrido[3,2,1-kl]phenoxazine-2-carboxylic acid] | 5.41 | > 200 | 25 (≈ 9.88 µg/mL) | pIC50 [1, 10]: 4.81 to 5.41
N#Cc1ccc2c(c1)Oc1c(F)c(F)cc3c(=O)c(C(=O)O)cn-2c13 [Compound 7b, 9-Cyano-5,6-d fluoro-3-oxo-3H-pyrido[3,2,1-d]phenoxazine-2-carboxylic acid] | 4.51 | – | – | IC50 [1, 11]: 31.2 µM; pIC50 [1, 12]: 4.51; Whole cell based antibacterial activity (MIC) E. coli Imp4213 (BAS3023) [4]: 200 µM; MIC [2]: >200 µM; MIC ([3]; wild type): >200 µM
O=C(O)c1cn2c3c(c(F)c(F)cc3c1=O)Oc1cc(C(F)(F)F)ccc1-2 [Compound 7c, 5,6-Difluoro-3-oxo-9-(trifluoromethyl)-3H-pyrido[3,2,1-kl]phenoxazine-2-carboxylic acid] | – | > 200 | – | activity against topoisomerase I when tested at 125 μM [1]: inactive; IC50 ([1]; IC50 (μM) used for CoMFA): 250 µM; pIC50 ([1]; PIC50 (pIC50 = −log IC50), experimental, converted from IC50): 3.61; pIC50 [1, 12]: < 3.90
CCOC(=O)c1cn2c3c(c(F)c(F)cc3c1=O)Oc1cc([N+](=O)[O-])ccc1-2 [Compound 6a, Ethyl 5,6-difluoro-9-nitro-3-oxo-3H-pyrido[3,2,1-kl]phenoxazine-2-carboxylate] | 4.81 | > 200 | 50 (≈ 19.4 µg/mL) | –
Nc1ccc2c(c1)Oc1c(NC3CCCCC3)c(F)cc3c(=O)c(C(=O)O)cn-2c13 [Compound 11i, 9-Amino-6-(cyclohexylamino)-5-fluoro-3-oxo-3H-pyrido[3,2,1-kl]phenoxazine-2-carboxylic acid] | 5.41 | > 200 | 25 (≈ 10.2 µg/mL) | pIC50 [1, 10]: 4.81 to 5.41
